From the NIST ThermoML archive (doi:10.1016/j.tca.2006.04.016)

Test: xn = mol fraction of the nth substance listed
Details: 101 kPa, Liquid, Vibrating tube method

CN(C)CCCN [N,N-dimethyl-1,3-propanediamine] + O
mass density [kg/m3]
Details	318.15 K	323.15 K	328.15 K	333.15 K	338.15 K	343.15 K	348.15 K	353.15 K
x2 = 0	–	790.41	785.91	781.39	776.85	772.29	767.7	763.1
x2 = 0.0403	–	793.5	789	784.47	779.92	775.35	770.76	766.14
x2 = 0.0811	–	796.65	792.14	787.61	783.06	778.48	773.88	769.25
x2 = 0.1198	–	799.82	795.31	790.78	786.22	781.64	777.03	772.39
x2 = 0.16	–	803.3	798.79	794.25	789.69	785.1	780.49	775.84
x2 = 0.1996	–	806.9	802.39	797.86	793.3	788.71	784.09	779.43
x2 = 0.2498	–	811.82	807.31	802.78	798.22	793.62	788.99	784.32
x2 = 0.2998	–	817.12	812.62	808.09	803.53	798.93	794.3	789.63
x2 = 0.3499	–	822.81	818.31	813.78	809.21	804.61	799.97	795.29
x2 = 0.3997	–	829.08	824.59	820.06	815.49	810.89	806.24	801.55
x2 = 0.4501	–	836.03	831.54	827.01	822.44	817.83	813.18	808.48
x2 = 0.4998	–	843.68	839.19	834.65	830.08	825.45	820.79	816.07
x2 = 0.5501	–	852.33	847.84	843.3	838.71	834.08	829.41	824.69
x2 = 0.5999	866.35	861.89	857.39	852.84	848.24	843.6	838.92	834.17
x2 = 0.6498	877.08	872.61	868.1	863.55	858.94	854.29	849.59	844.83
x2 = 0.7	889.3	884.83	880.31	875.74	871.13	866.47	861.76	857
x2 = 0.7499	902.82	898.36	893.85	889.3	884.69	880.03	875.32	870.56
x2 = 0.8	917.71	913.29	908.82	904.3	899.72	895.11	890.44	885.71
x2 = 0.84	930.55	926.21	921.82	917.39	912.9	908.37	903.78	899.14
x2 = 0.8799	943.86	939.69	935.48	931.22	926.91	922.56	918.14	913.67
x2 = 0.9	950.58	946.58	942.52	938.42	934.27	930.05	925.79	921.45
x2 = 0.92	957.27	953.52	949.71	945.84	941.89	937.89	933.81	929.67
x2 = 0.94	963.99	960.6	957.12	953.56	949.91	946.17	942.35	938.45
x2 = 0.9597	970.89	967.94	964.87	961.68	958.38	954.98	951.46	947.86
x2 = 0.975	976.98	974.39	971.65	968.78	965.78	962.66	959.41	956.07
x2 = 0.99	984.22	981.91	979.45	976.83	974.07	971.18	968.15	965.01
